Assay results as given in patent US8148391B2 (Cephalon, Inc., priority 2006, dated 2012).
Where two headings read alike, the source gives them in different places. Blank lines part the entries; values can stand above or below the molecule they belong to.

How the values were obtained:
[1] = molecular target: T1, baculovirus-expressed ALK (Homo sapiens, UniProt Q9UM73); experiment: ALK Kinase Assay (ELISA-type, time-resolved fluorescence); type: biochemical
T1 construct: host or cells: baculovirus expression system
T1 sequence (Q9UM73 19-1620): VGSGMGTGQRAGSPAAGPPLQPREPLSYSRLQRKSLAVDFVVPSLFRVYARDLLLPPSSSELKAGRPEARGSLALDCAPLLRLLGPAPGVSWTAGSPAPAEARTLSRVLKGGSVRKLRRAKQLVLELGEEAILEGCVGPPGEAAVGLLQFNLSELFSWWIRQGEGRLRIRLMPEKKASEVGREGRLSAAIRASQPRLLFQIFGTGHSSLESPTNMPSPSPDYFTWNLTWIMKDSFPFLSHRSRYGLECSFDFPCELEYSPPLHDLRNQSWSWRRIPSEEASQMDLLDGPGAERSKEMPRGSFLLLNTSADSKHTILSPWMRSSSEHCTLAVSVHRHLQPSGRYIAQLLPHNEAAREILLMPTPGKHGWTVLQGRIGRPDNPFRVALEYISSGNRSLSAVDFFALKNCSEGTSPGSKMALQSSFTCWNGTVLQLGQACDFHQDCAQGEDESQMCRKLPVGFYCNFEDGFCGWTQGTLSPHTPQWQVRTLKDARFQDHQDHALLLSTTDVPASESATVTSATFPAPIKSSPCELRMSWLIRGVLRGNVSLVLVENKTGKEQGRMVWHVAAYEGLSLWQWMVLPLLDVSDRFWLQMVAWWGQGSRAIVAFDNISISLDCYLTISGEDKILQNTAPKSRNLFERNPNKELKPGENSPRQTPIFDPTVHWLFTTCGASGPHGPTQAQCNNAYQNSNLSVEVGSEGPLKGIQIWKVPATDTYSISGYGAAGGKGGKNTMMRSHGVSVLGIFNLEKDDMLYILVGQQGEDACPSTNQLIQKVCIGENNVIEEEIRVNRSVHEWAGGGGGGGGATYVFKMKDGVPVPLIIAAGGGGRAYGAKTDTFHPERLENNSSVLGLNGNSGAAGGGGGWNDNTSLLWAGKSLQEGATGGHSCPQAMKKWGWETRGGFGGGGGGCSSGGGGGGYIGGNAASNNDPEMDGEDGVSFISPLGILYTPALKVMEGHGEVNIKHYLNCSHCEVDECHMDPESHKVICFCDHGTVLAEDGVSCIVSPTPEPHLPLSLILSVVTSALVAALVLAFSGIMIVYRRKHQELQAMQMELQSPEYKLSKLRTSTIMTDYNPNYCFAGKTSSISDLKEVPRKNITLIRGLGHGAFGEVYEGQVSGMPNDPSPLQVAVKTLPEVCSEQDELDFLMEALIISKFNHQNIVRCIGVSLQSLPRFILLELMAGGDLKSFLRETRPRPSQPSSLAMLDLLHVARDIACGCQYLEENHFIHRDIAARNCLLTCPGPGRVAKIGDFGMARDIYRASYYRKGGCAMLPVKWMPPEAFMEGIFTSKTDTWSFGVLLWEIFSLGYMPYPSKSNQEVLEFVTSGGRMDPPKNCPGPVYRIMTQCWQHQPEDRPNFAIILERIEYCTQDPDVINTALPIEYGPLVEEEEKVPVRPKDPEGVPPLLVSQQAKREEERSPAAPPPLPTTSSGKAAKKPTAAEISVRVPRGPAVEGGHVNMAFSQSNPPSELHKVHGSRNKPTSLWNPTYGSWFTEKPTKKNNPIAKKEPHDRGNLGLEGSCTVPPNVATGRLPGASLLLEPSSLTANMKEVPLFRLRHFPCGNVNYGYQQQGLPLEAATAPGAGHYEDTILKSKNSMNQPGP
Procedure, shortened: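 Wells were coated with phospholipase C-γ at 10 μg/mL in Tris-buffered saline. Adding 30 ng/ml enzyme started the reaction, which ran at 37° C for 15 minutes before Eu-N1 PT66 antibody detection. Percent inhibition versus log10 concentration gave IC50 by variable-slope fit.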

[2] = molecular target: T2, c-Met (cytoplasmic domain) (Homo sapiens, UniProt P08581); experiment: c-Met Kinase Assay (same methods as for ALK, with modifications); type: biochemical
T2 construct: 10 ng/mL c-Met (cytoplasmic domain, Invitrogen Corporation #PV3143); purchased Invitrogen Corporation PV3143
T2 sequence (P08581 956-1390 limits assumed): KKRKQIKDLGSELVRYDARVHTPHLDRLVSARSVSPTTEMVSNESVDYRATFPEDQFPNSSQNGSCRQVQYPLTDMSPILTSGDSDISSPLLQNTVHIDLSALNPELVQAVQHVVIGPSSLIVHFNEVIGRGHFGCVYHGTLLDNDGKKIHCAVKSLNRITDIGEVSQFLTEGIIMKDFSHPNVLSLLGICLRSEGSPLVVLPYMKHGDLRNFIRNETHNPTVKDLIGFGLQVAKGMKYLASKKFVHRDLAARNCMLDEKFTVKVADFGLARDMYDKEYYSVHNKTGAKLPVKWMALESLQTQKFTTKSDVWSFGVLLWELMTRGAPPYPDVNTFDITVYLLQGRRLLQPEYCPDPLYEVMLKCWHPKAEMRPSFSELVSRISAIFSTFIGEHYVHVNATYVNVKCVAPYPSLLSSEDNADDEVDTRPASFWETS
Procedure, shortened: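 IC50 values were fitted by variable-slope sigmoidal regression of percent inhibition against log compound concentration. Phosphorylation was read with Eu-N1 PT66 antibody after a 15 min, 37 °C reaction. The reaction was initiated with 10 ng/mL c-Met cytoplasmic domain on wells coated with 10 μg/mL PLC-γ in TBS.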

[3] = ALK kinase inhibition, 1 μM ATP (Km level), read-out: ALK Activity
[4] = c-Met kinase inhibition, 1 μM ATP (Km level), read-out: cMet Activity
[5] = 1 μM ATP (Km level), 30 ng/ml ALK, 37° C., 15 minutes, read-out: ALK Activity (ALK kinase inhibition, IC50 class)
[6] = 1 μM ATP (Km level), 10 ng/mL c-Met, read-out: cMet Activity (c-Met kinase inhibition, IC50 class)
[7] = ALK kinase inhibition, 1 μM ATP, read-out: ALK Activity
[8] = c-Met kinase inhibition, 1 μM ATP, read-out: cMet Activity
[9] = 1 μM ATP (Km level), read-out: ALK Activity (ALK Kinase Inhibition, IC50)
[10] = 1 μM ATP (Km level), read-out: cMet Activity (c-Met Kinase Inhibition, IC50)

IC50 [1, 3]: < 100 nM
IC50 [2, 4]: > 10000 nM
Compound: COCCN1CCc2cc(Nc3ncc(Cl)c(Nc4cc(Cl)ccc4OC)n3)c(OC)cc2CC1 [Example 243, 5-Chloro-N*4*-(5-chloro-2-methoxy-phenyl)-N*2*-[8-methoxy-3-(2-methoxy-ethyl)-2,3,4,5-tetrahydro-1H-benzo[d]azepin-7-yl]-pyrimidine-2,4-diamine]

IC50 [1, 5]: < 100 nM
IC50 [2, 6]: > 10000 nM
Compound: COc1cc2c(cc1Nc1ncc(Cl)c(Nc3ccccc3S(=O)(=O)C(C)C)n1)CCC(N1CCOCC1)CC2 (stereo not drawn) [Example 1050, 5-Chloro-N*2*-(3-methoxy-7-morpholin-4-yl-6,7,8,9-tetrahydro-5H-benzocyclohepten-2-yl)-N*4*-[2-(propane-2-sulfonyl)-phenyl]-pyrimidine-2,4-diamine]

IC50 [1, 3]: 100 to 1000 nM
IC50 [2, 4]: < 100 nM
Compound: CNC(=O)c1cccc(Cl)c1Nc1nc(Nc2ccc3c(c2)N(C)CCNC3)ncc1Cl [Example 460, 3-Chloro-2-[5-chloro-2-(1-methyl-2,3,4,5-tetrahydro-1H-benzo[e][1,4]diazepin-8-ylamino)-pyrimidin-4-ylamino]-N-methyl-benzamide]

IC50 [1, 7]: < 100 nM
IC50 [2, 8]: > 10000 nM
Compound: COc1cc2c(cc1Nc1ncc(Cl)c(Nc3ccc(N4CCOCC4)cc3OC)n1)CCN(CCN1CCOCC1)CC2 [Example 1523, 5-Chloro-N(2)-[8-methoxy-3-(2-morpholin-4-yl-ethyl)-2,3,4,5-tetrahydro-1H-3-benzazepin-7-yl]-N(4)-(2-methoxy-4-morpholin-4-yl-phenyl)-pyrimidine-2,4-diamine]

IC50 [1, 5]: < 100 nM
IC50 [2, 6]: 100 to 1000 nM
Compound: CN1C(=O)CCC(C)(C)c2cc(Nc3ncc(Cl)c(Nc4ccccc4S(=O)(=O)N(C)C)n3)ccc21 [Example 1325, 2-[5-Chloro-2-(1,5,5-trimethyl-2-oxo-2,3,4,5-tetrahydro-1H-benzo[b]azepin-7-ylamino)-pyrimidin-4-ylamino]-N,N-dimethyl-benzenesulfonamide]

IC50 [1, 7]: 100 to 1000 nM
IC50 [2, 8]: < 100 nM
Compound: CNC(=O)c1cccc(F)c1Nc1nc(Nc2ccc3c(c2)N(CCOC)C(=O)CCC3)ncc1Br [Example 1473, 2-{5-Bromo-2-[1-(2-methoxy-ethyl)-2-oxo-2,3,4,5-tetrahydro-1H-benzo[b]azepin-8-ylamino]-pyrimidin-4-ylamino}-3-fluoro-N-methyl-benzamide]

Compound: CNC(=O)c1cccc(F)c1Nc1nc(Nc2ccc3c(c2)C2CCC(C3)N2CCOC)ncc1Cl (stereo not drawn) [Example 456, 2-{5-Chloro-2-[12-(2-methoxy-ethyl)-12-aza-tricyclo[7.2.1.0(2,7)]dodeca-2(7),3,5-trien-4-ylamino]-pyrimidin-4-ylamino}-3-fluoro-N-methyl-benzamide]
IC50 [1, 3]: < 100 nM
IC50 [2, 4]: < 100 nM

IC50 [1, 5]: > 10000 nM
IC50 [2, 6]: 100 to 1000 nM
Compound: COc1cccc(C(=O)NCC#N)c1Nc1nc(Nc2ccc3c(c2)CCCC(=O)N3C)ncc1Cl [Example 1065, 2-[5-Chloro-2-(1-methyl-2-oxo-2,3,4,5-tetrahydro-1H-benzo[b]azepin-7-ylamino)-pyrimidin-4-ylamino]-N-cyanomethyl-3-methoxy-benzamide]

Compound: CNS(=O)(=O)c1ccccc1Nc1nc(Nc2ccc3c(c2)C2CCC3CN(C(C)=O)C2)ncc1Cl (stereo not drawn) [Example 289, 2-[2-(10-Acetyl-10-aza-tricyclo[6.3.2.0*2,7*]trideca-2,4,6-trien-4-ylamino)-5-chloro-pyrimidin-4-ylamino]-N-methyl-benzenesulfonamide]
IC50 [1, 3]: < 100 nM
IC50 [2, 4]: 100 to 1000 nM

IC50 [1, 7]: 100 to 1000 nM
IC50 [2, 8]: < 100 nM
Compound: Cc1nnc(-c2ccccc2Nc2nc(Nc3ccc4c(c3)CCOC(=O)N4C)ncc2Cl)o1 [Example 1786, 2-{5-Chloro-4-[2-(5-methyl-[1,3,4]oxadiazol-2-yl)-phenylamino]-pyrimidin-2-ylamino}-5-methyl-8,9-dihydro-5H-7-oxa-5-aza-benzocyclohepten-6-one]

IC50 [1, 9]: < 100 nM
IC50 [2, 10]: > 10000 nM
Compound: CCN1C(=O)CCCc2c1ccc(Nc1ncc(Cl)c(Nc3ccccc3-c3ncccc3C)n1)c2OC [Example 984, 7-{5-Chloro-4-[2-(3-methyl-pyridin-2-yl)-phenylamino]-pyrimidin-2-ylamino}-1-ethyl-6-methoxy-1,3,4,5-tetrahydro-benzo[b]azepin-2-one]

IC50 [1, 3]: < 100 nM
IC50 [2, 4]: 100 to 1000 nM
Compound: CN1CCN(C(=O)n2ccnc2)Cc2ccc(Nc3ncc(Cl)c(N[C@@H]4CCCC[C@H]4NS(C)(=O)=O)n3)cc21 [Example 482, N-((1R,2R)-2-{5-Chloro-2-[4-(imidazole-1-carbonyl)-1-methyl-2,3,4,5-tetrahydro-1H-benzo[e][1,4]diazepin-8-ylamino]-pyrimidin-4-ylamino}-cyclohexyl)-methanesulfonamide]

IC50 [1, 3]: < 100 nM
IC50 [2, 4]: < 100 nM
Compound: CNC(=O)c1ccccc1Nc1nc(Nc2ccc3c(c2)CN(CCOC)CCN3C)ncc1Cl [Example 432, 2-{5-Chloro-2-[4-(2-methoxy-ethyl)-1-methyl-2,3,4,5-tetrahydro-1H-benzo[e][1,4]diazepin-7-ylamino]-pyrimidin-4-ylamino}-N-methyl-benzamide]

IC50 [1, 7]: < 100 nM
IC50 [2, 8]: < 100 nM
Compound: COCC(=O)NC1CC(C)(C)c2ccc(Nc3ncc(Cl)c(Nc4c(F)cccc4C(=O)NCC#N)n3)cc2NC1=O (stereo not drawn) [Example 1637, 2-{5-Chloro-2-[3-(2-methoxy-acetylamino)-5,5-dimethyl-2-oxo-2,3,4,5-tetrahydro-1H-benzo[b]azepin-8-ylamino]-pyrimidin-4-ylamino}-N-cyanomethyl-3-fluoro-benzamide]

IC50 [1, 9]: < 100 nM
IC50 [2, 10]: > 10000 nM
Compound: CNC(=O)CN1CCc2cc(Nc3ncc(Cl)c(Nc4ccc(N5CCN(C)CC5)c(C)c4)n3)c(OC)cc2CC1 [Example 798, 2-(7-{5-Chloro-4-[3-methyl-4-(4-methyl-piperazin-1-yl)-phenylamino]-pyrimidin-2-ylamino}-8-methoxy-1,2,4,5-tetrahydro-benzo[d]azepin-3-yl)-N-methyl-acetamide]

IC50 [1, 3]: < 100 nM
IC50 [2, 4]: < 100 nM
Compound: C#CCN1CCN(C)c2cc(Nc3ncc(Cl)c(Nc4ccccc4C(=O)N(C)CC#C)n3)ccc2C1 [Example 488, 2-[5-Chloro-2-(1-methyl-4-prop-2-ynyl-2,3,4,5-tetrahydro-1H-benzo[e][1,4]diazepin-8-ylamino)-pyrimidin-4-ylamino]-N-methyl-N-prop-2-ynyl-benzamide]

IC50 [1, 7]: 100 to 1000 nM
IC50 [2, 8]: 1000 to 10000 nM
Compound: CNC(=O)c1ccc2c(c1Nc1nc(Nc3ccc4c(c3)NC(=O)CCC4)ncc1Cl)OCO2 [Example 1482, 4-[5-Chloro-2-(2-oxo-2,3,4,5-tetrahydro-1H-benzo[b]azepin-8-ylamino)-pyrimidin-4-ylamino]-benzo[1,3]dioxole-5-carboxylic acid methylamide]

IC50 [1, 5]: 100 to 1000 nM
IC50 [2, 6]: > 10000 nM
Compound: CCN1C(=O)CCCc2cc(Nc3ncc(Cl)c(Nc4ccccc4OC)n3)c(OC)cc21 [Example 1318, 7-[5-Chloro-4-(2-methoxy-phenylamino)-pyrimidin-2-ylamino]-1-ethyl-8-methoxy-1,3,4,5-tetrahydro-benzo[b]azepin-2-one]

IC50 [1, 3]: 1000 to 10000 nM
IC50 [2, 4]: 1000 to 10000 nM
Compound: CCN1CCc2ccc(Nc3ncc(Cl)c(NCCCC(=O)NC)n3)cc2CC1 [Example 212, 4-[5-Chloro-2-(3-ethyl-2,3,4,5-tetrahydro-1H-benzo[d]azepin-7-ylamino)-pyrimidin-4-ylamino]-N-methyl-butyramide]

IC50 [1, 5]: 100 to 1000 nM
IC50 [2, 6]: 100 to 1000 nM
Compound: CCN1C(=O)CCCc2ccc(Nc3ncc(Cl)c(Nc4cccc(CCC#N)c4)n3)cc21 [Example 1223, 3-{3-[5-Chloro-2-(1-ethyl-2-oxo-2,3,4,5-tetrahydro-1H-1-benzazepin-8-ylamino)-pyrimidin-4-ylamino]-phenyl}-propionitrile]

IC50 [1, 3]: < 100 nM
IC50 [2, 4]: > 10000 nM
Compound: CCN1CCc2cc(Nc3ncc(Cl)c(Nc4ccccc4C(=O)NC)n3)c(OC)c(N)c2CC1 [Example 50, 2-[2-(9-Amino-3-ethyl-8-methoxy-2,3,4,5-tetrahydro-1H-benzo[d]azepin-7-ylamino)-5-chloro-pyrimidin-4-ylamino]-N-methyl-benzamide]

IC50 [1, 7]: 100 to 1000 nM
IC50 [2, 8]: 100 to 1000 nM
Compound: C#CCNC(=O)c1cccc(F)c1Nc1nc(Nc2ccc3c(c2)N(CC)CC(O)(CO)CO3)ncc1Cl (stereo not drawn) [Example 1721, 2-[5-Chloro-2-(9-ethyl-7-hydroxy-7-hydroxymethyl-6,7,8,9-tetrahydro-5-oxa-9-aza-benzocyclohepten-2-ylamino)-pyrimidin-4-ylamino]-3-fluoro-N-prop-2-ynyl-benzamide]

IC50 [1, 5]: 1000 to 10000 nM
IC50 [2, 6]: > 10000 nM
Compound: CCN1CCc2ccc(OC)c(Nc3ncc(Cl)c(Nc4ccc(N5CCOCC5)cc4OC)n3)c2CC1=O [Example 1133, 9-[5-Chloro-4-(2-methoxy-4-morpholin-4-yl-phenylamino)-pyrimidin-2-ylamino]-3-ethyl-8-methoxy-1,3,4,5-tetrahydro-benzo[d]azepin-2-one]

IC50 [1, 9]: < 100 nM
IC50 [2, 10]: 100 to 1000 nM
Compound: NC(=O)[C@@H]1[C@H](Nc2nc(Nc3ccc4c(c3)CCC(NCC(F)F)CC4)ncc2Cl)[C@H]2C=C[C@@H]1C2 (stereo partly drawn) [Example 665, (1S,2S,3R,4R)-3-{5-Chloro-2-[7-(2,2-difluoro-ethylamino)-6,7,8,9-tetrahydro-5H-benzocyclohepten-2-ylamino]-pyrimidin-4-ylamino}-bicyclo[2.2.1]hept-5-ene-2-carboxylic acid amide]
